Data taken from US7858635B2 (priority 2005, dated 2010).

Assays:
[1] = target: T1, M1 muscarinic receptor (Homo sapiens, UniProt P11229); assay: Functional mobilization of intracellular calcium (FLIPR, Fluo-3), M1-CHO cells; format: cell-based; settings: compound nos. 1-454; for Emax: 100% efficacy is the maximum response obtained with the Carbachol control, read-out: M1 Efficacy; for M1 Activity: M1-CHO cells, calcium mobilization
T1 construct: expressed in transfected cells; host or cells: CHO cells (M1-CHO, under zeocin and G418 selection)
T1 sequence (P11229 1-460): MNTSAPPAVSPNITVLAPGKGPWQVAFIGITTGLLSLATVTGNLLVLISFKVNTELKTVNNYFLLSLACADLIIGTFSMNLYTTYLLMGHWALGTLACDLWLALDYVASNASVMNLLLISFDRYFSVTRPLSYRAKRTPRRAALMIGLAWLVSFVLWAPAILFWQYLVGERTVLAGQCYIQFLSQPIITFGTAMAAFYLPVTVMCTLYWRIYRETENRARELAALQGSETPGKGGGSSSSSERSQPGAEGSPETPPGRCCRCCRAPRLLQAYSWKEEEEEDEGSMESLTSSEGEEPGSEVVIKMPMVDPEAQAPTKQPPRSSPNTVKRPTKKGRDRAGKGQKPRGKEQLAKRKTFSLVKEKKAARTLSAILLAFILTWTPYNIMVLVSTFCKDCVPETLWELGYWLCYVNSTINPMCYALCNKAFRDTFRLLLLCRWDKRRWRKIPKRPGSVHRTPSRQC
Outline: (§1)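 Fluo-3 read-out, ex 488/em 540 nm, 60 sec on FLIPR 3. For agonist mode, compound added directly; for inhibition, 15 min compound pre-incubation before carbachol at EC80 (added as a 3× solution), or co-application. Buffer pH 7.4 with 1 mM probenecid; DMSO 0.5%.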

[2] = target: T2, M4 muscarinic receptor (Homo sapiens, UniProt P08173); assay: Functional mobilization of intracellular calcium (FLIPR, Fluo-3), M4-CHO cells; format: cell-based; settings: compound nos. 1-454; for Emax: 100% efficacy is the maximum response obtained with the Carbachol control, read-out: M4 Efficacy; for M4 Activity: M4-CHO cells, calcium mobilization
T2 construct: expressed in transfected cells; host or cells: CHO cells (M4-CHO, under puromycin, zeocin and blasticidin selection)
T2 sequence (P08173 1-479): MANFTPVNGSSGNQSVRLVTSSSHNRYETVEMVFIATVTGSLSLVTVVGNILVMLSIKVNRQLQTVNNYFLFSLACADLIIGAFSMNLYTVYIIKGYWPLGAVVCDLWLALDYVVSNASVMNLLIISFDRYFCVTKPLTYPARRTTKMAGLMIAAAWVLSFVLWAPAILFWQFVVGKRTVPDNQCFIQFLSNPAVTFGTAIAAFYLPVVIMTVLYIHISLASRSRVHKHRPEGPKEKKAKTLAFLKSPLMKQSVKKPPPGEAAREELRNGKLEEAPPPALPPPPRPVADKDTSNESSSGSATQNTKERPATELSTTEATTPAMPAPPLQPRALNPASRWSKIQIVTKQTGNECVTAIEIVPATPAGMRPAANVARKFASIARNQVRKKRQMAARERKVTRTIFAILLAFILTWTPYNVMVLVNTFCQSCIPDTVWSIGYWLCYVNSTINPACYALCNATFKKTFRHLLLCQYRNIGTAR
Outline: as §1

| SMILES | Emax [1] [%] | M1 Activity [1] | Emax [2] [%] | M4 Activity [2] |
| --- | --- | --- | --- | --- |
| C1=C[C@H]2C[C@H]1C[C@@H]2CN1CCC2(CCc3ccccc32)CC1 [compound 263] | < 65 | +++ (activity was measured to be less than or equal to 0.7 μM) | < 55 | +++ (activity was measured to be less than or equal to 0.1 μM) |
| Cc1ccc2c(c1)C1(CCN([C@@H]3C[C@@H]4CC[C@@H]3C4)CC1)CN2 [compound 264] | < 65 | + (activity was measured to be greater than or equal to 3.0 μM) | < 55 | + (activity was measured to be greater than or equal to 4.0 μM) |
| COCCOC(=O)N1CCC(N2CCC3(CC2)CN(C(=O)N(C)C)c2ccc(F)cc23)CC1 [compound 265] | < 65 | ++ (activity was measured to be between 0.7 μM and 3.0 μM) | < 55 | ++ (activity was measured to be between 0.1 μM and 4.0 μM) |
| CCCOC(=O)N1CCCC(N2CCC3(CC2)CN(C(C)=O)c2ccc(F)cc23)CC1 (stereo not shown) [compound 266] | < 65 | + (activity was measured to be greater than or equal to 3.0 μM) | < 55 | + (activity was measured to be greater than or equal to 4.0 μM) |
| CCOC(=O)N1CCC(N2CCC3(CC2)CN(C(=O)c2ccccc2F)c2ccc(F)cc23)CC1 [compound 267] | < 65 | + (activity was measured to be greater than or equal to 3.0 μM) | < 55 | + (activity was measured to be greater than or equal to 4.0 μM) |
| CC(=O)N1CC2(CCN(C3CCOCC3)CC2)c2cc(F)ccc21 [compound 268] | < 65 | + (activity was measured to be greater than or equal to 3.0 μM) | < 55 | + (activity was measured to be greater than or equal to 4.0 μM) |
| CC(=O)N1CC2(CCN(C3CCN(C(=O)OC(C)C)CC3)CC2)c2cc(F)ccc21 [compound 269] | 65 to 85 | +++ (activity was measured to be less than or equal to 0.7 μM) | > 70 | +++ (activity was measured to be less than or equal to 0.1 μM) |
| CCCCC(=O)N1CC2(CCN(C3CCN(C(=O)OCC)CC3)CC2)c2cc(F)ccc21 [compound 270] | 65 to 85 | +++ (activity was measured to be less than or equal to 0.7 μM) | > 70 | +++ (activity was measured to be less than or equal to 0.1 μM) |
| O=C(OC1CCCC1)N1C2CCC1CC(N1CCC3(CC1)C(=O)Nc1ccccc13)C2 (stereo not shown) [compound 271] | 65 to 85 | +++ (activity was measured to be less than or equal to 0.7 μM) | < 55 | +++ (activity was measured to be less than or equal to 0.1 μM) |
| c1ccc2c(c1)NCC21CCN(C2CC3CCC2C3)CC1 (stereo not shown) [compound 272] | 65 to 85 | +++ (activity was measured to be less than or equal to 0.7 μM) | > 70 | +++ (activity was measured to be less than or equal to 0.1 μM) |
| CC(=O)N[C@H]1CC2(CCN(C3CCC(c4ccccc4)CC3)CC2)c2ccccc21 (stereo partly shown) [compound 273] | > 85 | +++ (activity was measured to be less than or equal to 0.7 μM) | > 70 | ++ (activity was measured to be between 0.1 μM and 4.0 μM) |
| CCOC(=O)N[C@@H]1CC2(CCN(C[C@H]3C[C@H]4CC[C@H]3C4)CC2)c2ccccc21 [compound 275] | 65 to 85 | +++ (activity was measured to be less than or equal to 0.7 μM) | > 70 | ++ (activity was measured to be between 0.1 μM and 4.0 μM) |
| Clc1ccc2c(c1)C1(CCO2)CCN(C2CCCCC2)CC1 [compound 276] | 65 to 85 | +++ (activity was measured to be less than or equal to 0.7 μM) | 55 to 70 | + (activity was measured to be greater than or equal to 4.0 μM) |
